Reference: article PMC11722180, “Structure–Activity Relationship Studies of Tetracyclic Pyrrolocarbazoles Inhibiting Heterotetrameric Protein Kinase CK2” (Molecules, 2024)

Target: T1, CK2α/CK2β interaction (human CK2α1–335, human CK2β1–193) (Homo sapiens, UniProt P68400)
T1 construct: human CK2α^1–335; made in house
T1 sequence (P68400 1-335): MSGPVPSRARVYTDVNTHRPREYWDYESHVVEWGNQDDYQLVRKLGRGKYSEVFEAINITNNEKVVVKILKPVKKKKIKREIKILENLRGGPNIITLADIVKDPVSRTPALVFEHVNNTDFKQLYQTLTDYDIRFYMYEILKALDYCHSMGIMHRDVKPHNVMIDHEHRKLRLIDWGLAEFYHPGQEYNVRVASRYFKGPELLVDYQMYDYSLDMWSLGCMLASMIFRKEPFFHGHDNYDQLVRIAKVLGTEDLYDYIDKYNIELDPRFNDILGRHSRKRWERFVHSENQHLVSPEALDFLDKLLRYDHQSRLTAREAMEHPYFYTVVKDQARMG
Assay: Microscale thermophoresis (MST) assay of the CK2α/CK2β subunit interaction
Type: binding
Settings: for Ki / Inhibition of CK2α/CK2β Interaction Ki: MST, global analysis, KD′ = KD [1 + (ccompound/Ki)], n.s. = KD′ not significantly different from KD; for Ki: read-out: Inhibition of CK2α/CK2β Interaction Ki
Description: A microscale thermophoresis (MST) assay was used to determine the interaction of the CK2α and CK2β subunits. In this assay, a constant concentration of the fluorescently labeled CK2β subunit was added to increasing concentrations of the CK2α subunit and the thermophoretic shift was recorded, respectively. […] The same experiment was performed in the presence of 20, 50, or 100 µM of the test compounds (see Table 1). An increased KD′ value in the presence of the test compounds was evaluated as the inhibition of the association of the CK2α and CK2β subunits. The increased KD′ value was then transformed together with the employed concentration of the test compound into the Ki value for the inhibition of the CK2α/CK2β association (formula see Supporting Information).
The compounds were investigated at a final concentration of 20, 50, or 100 µM. […] Data analysis and statistical evaluation were conducted with GraphPad Prism v.6 for Windows (GraphPad Software, La Jolla, CA, USA, www.graphpad.com).

| Kd [nM] | Ki [nM] | Inhibition of CK2α/CK2β Interaction Ki | Compound |
| --- | --- | --- | --- |
| 62 ± 19 | 14000 | – | COc1cc([C@@H]2c3c([nH]c4ccccc34)[C@@H](C(=O)NCc3ccccc3)[C@@H]3C(=O)NC(=O)[C@H]23)cc(OC)c1OC (racemic) [(±)-12, (3aRS,4SR,10RS,10aRS)-N-Benzyl-1,3-dioxo-10-(3,4,5-trimethoxyphenyl)-1,2,3,3a,4,5,10,10a-octahydropyrrolo[3,4-b]carbazole-4-carboxamide] |
| 17 ± 3 | – | n.s. | COc1cc([C@@H]2c3c([nH]c4ccccc34)[C@@H](C(=O)NCc3ccc(Cl)cc3)[C@@H]3C(=O)NC(=O)[C@H]23)cc(OC)c1OC (racemic) [(±)-13, (3aRS,4SR,10RS,10aRS)-N-(4-Chlorobenzyl)-1,3-dioxo-10-(3,4,5-trimethoxyphenyl)-1,2,3,3a,4,5,10,10a-octahydropyrrolo[3,4-b]carbazole-4-carboxamide] |
| 158 ± 17 | 3800 | – | COc1cc([C@@H]2c3c([nH]c4ccccc34)[C@@H](C(=O)NCCc3c[nH]c4ccccc34)[C@@H]3C(=O)NC(=O)[C@H]23)cc(OC)c1OC (racemic) [(±)-14, (3aRS,4SR,10RS,10aRS)-N-[2-(Indol-3-yl)ethyl]-1,3-dioxo-10-(3,4,5-trimethoxyphenyl)-1,2,3,3a,4,5,10,10a-octahydropyrrolo[3,4-b]carbazole-4-carboxamide] |

Further lines, the molecule ahead of its results:

| Compound | Kd [nM] | Ki [nM] | Inhibition of CK2α/CK2β Interaction Ki |
| --- | --- | --- | --- |
| CCOC(=O)[C@H]1c2[nH]c3ccccc3c2[C@H](c2cc(OC)c(OC)c(OC)c2)[C@@H]2C(=O)NC(=O)[C@@H]21 (racemic) [(±)-9a, Ethyl (3aRS,4SR,10RS,10aRS)-1,3-dioxo-10-(3,4,5-trimethoxyphenyl9a)-1,2,3,3a,4,5,10,10a-octahydropyrrolo[3,4-b]carbazole-4-carboxylate] | 59 ± 25 | 32000 | – |
| CCOC(=O)[C@@H]1c2[nH]c3ccccc3c2[C@@H](c2cc(OC)c(OC)c(OC)c2)[C@H]2C(=O)N(C)C(=O)[C@H]21 (racemic) [(±)-9b, Ethyl (3aRS,4SR,10RS,10aRS)-2-methyl-1,3-dioxo-10-(3,4,5-trimethoxyphenyl)-1,2,3,3a,4,5,10,10a-octahydropyrrolo[3,4-b]carbazole-4-carboxylate] | 14 ± 6 | – | n.s. |
| COc1cc([C@@H]2c3c([nH]c4ccccc34)[C@@H](C(=O)O)[C@@H]3C(=O)NC(=O)[C@H]23)cc(OC)c1OC (racemic) [(±)-10, (3aRS,4SR,10RS,10aRS)-1,3-Dioxo-10-(3,4,5-trimethoxyphenyl)-1,2,3,3a,4,5,10,10a-octahydropyrrolo[3,4-b]carbazole-4-carboxylic acid] | 758 ± 338 | 1900 | – |
| CNC(=O)[C@@H]1c2[nH]c3ccccc3c2[C@@H](c2cc(OC)c(OC)c(OC)c2)[C@H]2C(=O)NC(=O)[C@H]21 (racemic) [(±)-11, (3aRS,4SR,10RS,10aRS)-N-Methyl-1,3-dioxo-10-(3,4,5-trimethoxyphenyl)-1,2,3,3a,4,5,10,10a-octahydropyrrolo[3,4-b]carbazole-4-carboxamide] | 132 ± 43 | 6000 | – |
| COc1cc([C@@H]2c3c([nH]c4ccccc34)[C@@H](C(=O)Nc3cccnc3)[C@@H]3C(=O)NC(=O)[C@H]23)cc(OC)c1OC (racemic) [(±)-15, (3aRS,4SR,10RS,10aRS)-1,3-Dioxo-N-(pyridin-3-yl)-10-(3,4,5-trimethoxyphenyl)-1,2,3,3a,4,5,10,10a-octahydropyrrolo[3,4-b]carbazole-4-carboxamide] | 89 ± 13 | 7400 | – |
| COc1cc([C@@H]2c3c([nH]c4ccccc34)[C@@H](C(=O)N3CCCCC3)[C@@H]3C(=O)NC(=O)[C@H]23)cc(OC)c1OC (racemic) [(±)-16, (3aRS,4SR,10RS,10aRS)-4-[(Piperidin-1-yl)carbonyl]-10-(3,4,5-trimethoxyphenyl)-4,5,10,10a-tetrahydropyrrolo[3,4-b]carbazole-1,3(2H,3aH)-dione] | 72 ± 12 | 9700 | – |
